Values quoted from earlier work, collected in patent US20100016582A1 (Wyeth, priority 2008, published 2010).

What was measured:
[1] = drug formulations; acetic acid
[2] = contact with a solvent or solvent mixture (e.g., ethyl acetate and ethanol)
uterine response = settings: preclinical models of uterine stimulation
[3] = test system: MCF-7 cell line (human breast cancer cell line)
[4] = test system: ovariectomized rat model of osteopenia

Row | SMILES | bioavailability [1] | conversion of Form A to Form B [2] | stimulation of uterine response (uterine response) | estrogen antagonist behaviour [3] | prevention of bone loss [4] | reduction of cholesterol [4]
1 | Cc1c(-c2ccc(O)cc2)n(Cc2ccc(OCCN3CCCCCC3)cc2)c2ccc(O)cc12 [Form A, 1-[4-(2-azepan-1-yl-ethoxy)-benzyl]-2-(4-hydroxy-phenyl)-3-methyl-1H-indol-5-ol acetic acid] | better bioavailability in some drug formulations | can easily convert to Form B |  |  |  | 
2 | Cc1c(-c2ccc(O)cc2)n(Cc2ccc(OCCN3CCCCCC3)cc2)c2ccc(O)cc12 [bazedoxifene acetate, 1-[4-(2-azepan-1-yl-ethoxy)-benzyl]-2-(4-hydroxy-phenyl)-3-methyl-1H-indol-5-ol acetic acid] |  |  | little or no stimulation of uterine response | behaves as an estrogen antagonist | estrogen agonist-like effect in preventing bone loss | reducing cholesterol
